# From US20050197350A1, “Novel quinoline, tetrahydroquinazoline, and pyrimidine derivatives and methods of treatment related to the use thereof” (TAISHO PHARMACEUTICAL CO., LTD., priority 2003, published 2005)
# Test system: MCH receptors
# Experiment: MCH receptor activity class (method not given)
# Conditions: class by percent of control at 10^−7 M or IC50
row,SMILES,class
1,"COc1cccc(C(=O)N[C@H]2CC[C@@H](Nc3nc(C)cc(N(C)C)n3)CC2)c1 [compound 2984, N-(cis-4-{[4-(dimethylamino)-6-methylpyrimidin-2-yl]amino}cyclohexyl)-3-methoxybenzamide]",1 (Class 1: The value of percent of control at 10^−7 M was less than 40% or the value of IC50 was less than 50 nM.)
2,"Cc1ccc(C(=O)N[C@H]2CC[C@@H](Nc3nc(C)cc(N(C)C)n3)CC2)cc1 [compound 2985, N-(cis-4-{[4-(dimethylamino)-6-methylpyrimidin-2-yl]amino}cyclohexyl)-4-methylbenzamide]",1 (Class 1: The value of percent of control at 10^−7 M was less than 40% or the value of IC50 was less than 50 nM.)
3,Cc1cc(N(C)C)nc(N[C@H]2CC[C@@H](NC(=O)c3ccc(Cl)cc3)CC2)n1 [compound 2986],1 (Class 1: The value of percent of control at 10^−7 M was less than 40% or the value of IC50 was less than 50 nM.)
4,Cc1cc(N(C)C)nc(N[C@H]2CC[C@@H](NC(=O)c3cccc(Cl)c3)CC2)n1 [compound 2987],1 (Class 1: The value of percent of control at 10^−7 M was less than 40% or the value of IC50 was less than 50 nM.)
5,"Cc1cc(N(C)C)nc(N[C@H]2CC[C@@H](NC(=O)c3ccc(F)c(F)c3)CC2)n1 [compound 2988, N-(cis-4-{[4-(dimethylamino)-6-methylpyrimidin-2-yl]amino}cyclohexyl)-3,4-difluorobenzamide]",1 (Class 1: The value of percent of control at 10^−7 M was less than 40% or the value of IC50 was less than 50 nM.)
6,"Cc1cc(N(C)C)nc(N[C@H]2CC[C@@H](NC(=O)c3ccc(OC(F)(F)F)cc3)CC2)n1 [compound 2989, N-(cis-4-{[4-(dimethylamino)-6-methylpyrimidin-2-yl]amino}cyclohexyl)-4-(trifluoromethoxy)benzamide]",3 (Class 3 The value of percent of control at 10^−7 M was more than 60% or the value of IC50 was more than 200 nM.)
7,"Cc1cc(N(C)C)nc(N[C@H]2CC[C@@H](NC(=O)c3ccc(F)cc3)CC2)n1 [compound 2990, N-(cis-4-{[4-(dimethylamino)-6-methylpyrimidin-2-yl]amino}cyclohexyl)-4-fluorobenzamide]",1 (Class 1: The value of percent of control at 10^−7 M was less than 40% or the value of IC50 was less than 50 nM.)
8,"COc1cc(C(=O)N[C@H]2CC[C@@H](Nc3nc(C)cc(N(C)C)n3)CC2)cc(OC)c1OC [compound 2991, N-(cis-4-{[4-(dimethylamino)-6-methylpyrimidin-2-yl]amino}cyclohexyl)-3,4,5-trimethoxybenzamide]",1 (Class 1: The value of percent of control at 10^−7 M was less than 40% or the value of IC50 was less than 50 nM.)
9,"Cc1cc(N(C)C)nc(NC2CCC(NC(=O)c3cccc([N+](=O)[O-])c3)CC2)n1 (centres unmarked) [compound 2992, N-(4-{[4-(dimethylamino)-6-methylpyrimidin-2-yl]amino}cyclohexyl)-3-nitrobenzamide]",1 (Class 1: The value of percent of control at 10^−7 M was less than 40% or the value of IC50 was less than 50 nM.)
10,"Cc1cc(N(C)C)nc(N[C@H]2CC[C@@H](NC(=O)C(c3ccccc3)c3ccccc3)CC2)n1 [compound 2993, N-(cis-4-{[4-(dimethylamino)-6-methylpyrimidin-2-yl]amino}cyclohexyl)-2,2-diphenylacetamide]",1 (Class 1: The value of percent of control at 10^−7 M was less than 40% or the value of IC50 was less than 50 nM.)
11,"Cc1cc(N(C)C)nc(N[C@H]2CC[C@@H](NC(=O)c3ccc(Cl)c(Cl)c3)CC2)n1 [compound 2994, 3,4-dichloro-N-(cis-4-{[4-(dimethylamino)-6-methylpyrimidin-2-yl]amino}cyclohexyl)benzamide]",1 (Class 1: The value of percent of control at 10^−7 M was less than 40% or the value of IC50 was less than 50 nM.)
12,"Cc1cnc(N[C@H]2CC[C@@H](NS(=O)(=O)c3ccccc3)CC2)nc1N(C)C [compound 2995, N-(cis-4-{[4-(dimethylamino)-5-methylpyrimidin-2-yl]amino}cyclohexyl)benzenesulfonamide]",3 (Class 3 The value of percent of control at 10^−7 M was more than 60% or the value of IC50 was more than 200 nM.)
13,Cc1ccc(CN[C@H]2CC[C@@H](Nc3ncc(C)c(N(C)C)n3)CC2)cc1 [compound 2996],3 (Class 3 The value of percent of control at 10^−7 M was more than 60% or the value of IC50 was more than 200 nM.)
14,Cc1cnc(N[C@H]2CC[C@@H](NCc3ccc(F)c(F)c3)CC2)nc1N(C)C [compound 2997],3 (Class 3 The value of percent of control at 10^−7 M was more than 60% or the value of IC50 was more than 200 nM.)
15,Cc1cnc(N[C@H]2CC[C@@H](NCc3cccc(Cl)c3)CC2)nc1N(C)C [compound 2998],3 (Class 3 The value of percent of control at 10^−7 M was more than 60% or the value of IC50 was more than 200 nM.)
16,Cc1cnc(N[C@H]2CC[C@@H](NCc3cccc(Br)c3)CC2)nc1N(C)C [compound 2999],3 (Class 3 The value of percent of control at 10^−7 M was more than 60% or the value of IC50 was more than 200 nM.)
17,COc1cc(CN[C@H]2CC[C@@H](Nc3ncc(C)c(N(C)C)n3)CC2)cc(OC)c1 [compound 3000],2 (Class 2: The value of percent of control at 10^−7 M was from 40% to 60% or the value of IC′50 was from 50 nM to 200 nM.)
18,Cc1cnc(N[C@H]2CC[C@@H](NCc3cc(Cl)cc(Cl)c3)CC2)nc1N(C)C [compound 3001],3 (Class 3 The value of percent of control at 10^−7 M was more than 60% or the value of IC50 was more than 200 nM.)

row,SMILES,class
1,Cc1cnc(N[C@H]2CC[C@@H](NCc3ccc(Cl)c(Cl)c3)CC2)nc1N(C)C [compound 3002],3 (Class 3 The value of percent of control at 10^−7 M was more than 60% or the value of IC50 was more than 200 nM.)
2,COc1ccc(CN[C@H]2CC[C@@H](Nc3ncc(C)c(N(C)C)n3)CC2)cc1C [compound 3003],3 (Class 3 The value of percent of control at 10^−7 M was more than 60% or the value of IC50 was more than 200 nM.)
3,Cc1cnc(N[C@H]2CC[C@@H](NCc3cccc(OC(F)(F)F)c3)CC2)nc1N(C)C [compound 3004],3 (Class 3 The value of percent of control at 10^−7 M was more than 60% or the value of IC50 was more than 200 nM.)
4,Cc1cc(N(C)C)nc(N[C@H]2CC[C@@H](NCc3cccc(OC(F)(F)F)c3)CC2)n1 [compound 3005],3 (Class 3 The value of percent of control at 10^−7 M was more than 60% or the value of IC50 was more than 200 nM.)
5,CN(C)c1nc(N[C@H]2CC[C@@H](NC(=O)c3ccc(F)c(F)c3)CC2)ncc1C(F)(F)F [compound 3006],3 (Class 3 The value of percent of control at 10^−7 M was more than 60% or the value of IC50 was more than 200 nM.)
6,Cc1cnc(N[C@H]2CC[C@@H](CNC(=O)c3cccnc3Oc3ccc(Br)cc3)C2)nc1N(C)C [compound 3012],2 (Class 2: The value of percent of control at 10^−7 M was from 40% to 60% or the value of IC′50 was from 50 nM to 200 nM.)
7,COc1ccccc1Oc1ncccc1C(=O)NC[C@@H]1CC[C@H](Nc2ncc(C)c(N(C)C)n2)C1 [compound 3013],1 (Class 1: The value of percent of control at 10^−7 M was less than 40% or the value of IC50 was less than 50 nM.)
8,Cc1cnc(N[C@H]2CC[C@@H](CNC(=O)c3cccnc3Oc3ccccc3Br)C2)nc1N(C)C [compound 3014],3 (Class 3 The value of percent of control at 10^−7 M was more than 60% or the value of IC50 was more than 200 nM.)
9,Cc1cnc(N[C@H]2CC[C@@H](CNC(=O)c3cccnc3Oc3ccccc3F)C2)nc1N(C)C [compound 3015],1 (Class 1: The value of percent of control at 10^−7 M was less than 40% or the value of IC50 was less than 50 nM.)
10,Cc1cnc(N[C@H]2CC[C@@H](CNC(=O)c3cccnc3Oc3cccc(F)c3)C2)nc1N(C)C [compound 3017],3 (Class 3 The value of percent of control at 10^−7 M was more than 60% or the value of IC50 was more than 200 nM.)
11,Cc1cnc(N[C@H]2CC[C@@H](CNC(=O)c3cccnc3Oc3cccc(Cl)c3)C2)nc1N(C)C [compound 3018],3 (Class 3 The value of percent of control at 10^−7 M was more than 60% or the value of IC50 was more than 200 nM.)
12,Cc1cnc(N[C@H]2CC[C@@H](CNC(=O)c3cccnc3Oc3ccc(F)c(Cl)c3)C2)nc1N(C)C [compound 3019],2 (Class 2: The value of percent of control at 10^−7 M was from 40% to 60% or the value of IC′50 was from 50 nM to 200 nM.)
13,Cc1cnc(N[C@H]2CC[C@@H](CNC(=O)c3cccnc3Oc3ccc(Cl)c(F)c3)C2)nc1N(C)C [compound 3020],3 (Class 3 The value of percent of control at 10^−7 M was more than 60% or the value of IC50 was more than 200 nM.)
14,"Cc1cnc(N[C@H]2CC[C@@H](NC(=O)N(C)c3cccc(Cl)c3)CC2)nc1N(C)C [compound 3021, N-(3-chlorophenyl)-N′-(cis-4-{[4-(dimethylamino)-5-methylpyrimidin-2-yl]amino}cyclohexyl)-N-methylurea]",1 (Class 1: The value of percent of control at 10^−7 M was less than 40% or the value of IC50 was less than 50 nM.)
15,"Cc1cnc(N[C@H]2CC[C@@H](NC(=O)N(C)c3ccc(Cl)c(Cl)c3)CC2)nc1N(C)C [compound 3022, N-(3,4-dichlorophenyl)-N′-(cis-4-{[4-(dimethylamino)-5-methylpyrimidin-2-yl]amino}cyclohexyl)-N-methylurea]",1 (Class 1: The value of percent of control at 10^−7 M was less than 40% or the value of IC50 was less than 50 nM.)
16,"Cc1cccc(N(C)C(=O)N[C@H]2CC[C@@H](Nc3ncc(C)c(N(C)C)n3)CC2)c1 [compound 3023, N′-(cis-4-{[4-(dimethylamino)-5-methylpyrimidin-2-yl]amino}cyclohexyl)-N-methyl-N-(3-methylphenyl)urea]",1 (Class 1: The value of percent of control at 10^−7 M was less than 40% or the value of IC50 was less than 50 nM.)
17,"Cc1ccc(N(C)C(=O)N[C@H]2CC[C@@H](Nc3ncc(C)c(N(C)C)n3)CC2)cc1 [compound 3024, N′-(cis-4-{[4-(dimethylamino)-5-methylpyrimidin-2-yl]amino}cyclohexyl)-N-methyl-N-(4-methylphenyl)urea]",1 (Class 1: The value of percent of control at 10^−7 M was less than 40% or the value of IC50 was less than 50 nM.)
